Test results taken from publication PMC7352759, “S(+)-(2E)-N-(2-Hydroxypropyl)-3-Phenylprop-2-Enamide (KM-568): A Novel Cinnamamide Derivative with Anticonvulsant Activity in Animal Models of Seizures and Epilepsy” (International Journal of Molecular Sciences, 2020).

Assays:
[1] = tested on: rat cerebral cortex NMDA receptor; assay: NMDA receptor radioligand binding ([3H]CGP39653); settings: 10 µM; antagonist radioligand
Experimental: In order to identify molecular mechanism of action, KM-568 was tested at 10 µM in three radioligand binding assays: rat cerebral cortex GABA receptor non-selective agonist radioligand, AMPA (α-amino-3-hydroxy-5-methyl-4-isoxazolepropionic acid) receptor agonist radioligand, and NMDA (N-methyl-D-aspartate) receptor antagonist radioligand as well as one functional assay involving a human recombinant TRPV1 receptor expressed in CHO cells (agonist and antagonist effects).
Tests were performed by Eurofins Cerep (Eurofins CEREP SA, Celle-Lévescault, France) as a commercial service. In radioligand assays, rat cerebral cortex GABA receptor as well as rat cerebral cortex AMPA (α-amino-3-hydroxy-5-methyl-4-isoxazolepropionic acid) and NMDA (N-methyl-D-aspartate) receptors with 10 nM [^3H]GABA, 8 nM [^3H]AMPA, and 5 nM [^3H]CGP39653, respectively, were used. The results were detected by means of scintillation counting. In functional assays, a human recombinant TRPV1 receptor expressed in Chinese hamster ovary (CHO) cells with 1 µM capsaicin or 30 nM capsazepine were used. Fluorimetry was used as a detection method.

[2] = In vitro metabolism, mouse liver microsomes; type: in vitro ADME
Experimental: Stock solution of KM-568 was prepared in methanol. Mouse liver microsomes (Sigma–Aldrich, Darmstadt, Germany) were carefully thawed on ice before the experiment. A compound tested at concentration 20 μM was preincubated with mouse liver microsomes (0.4 mg/mL) in 100 mM potassium-phosphate buffer (pH 7.4) for 15 min at 37 °C. The biotransformation reaction was started with the addition of NADPH-regenerating system (NADP^+, glucose-6-phosphate, 0.7 U/mL glucose-6-phosphate dehydrogenase in 100 mM potassium-phosphate buffer) (Sigma–Aldrich, Darmstadt, Germany) and the mixture was incubated at 37 °C. Experiments were carried out 30 and 60 min at 37 °C, in duplicates. Negative control without NADPH-regenerating system was also conducted. Biotransformation was stopped by adding cooled 70% perchloric acid. Next, an internal standard (pentoxifylline) was added and samples were centrifuged at 9000 rpm for 10 min at 4 °C. The supernatant was analyzed by means of LC/MS. In vitro half time (t1/2) was established from the slope of the compound depletion curve. Intrinsic clearance (Clint) was obtained from the equation Clint = (volume of incubation [µl]/protein in the incubation [mg]) × 0.693/t1/2 [58, 59].

[3] = Ames microplate format (MPF) assay, TA1535; settings: Salmonella typhimurium, Salmonella typhimurium TA1535
Text: (§1) The Ames microplate format (MPF) mutagenicity assay (Xenometrix, Allschwil, Switzerland) was used to test KM-568 mutagenicity. Growth, exposure, and indicator media, positive control chemicals, and four Salmonella typhimurium strains TA98, TA100, TA1535 and TA1537 were included in the kit. TA100 and TA1535 strains detect base substitution mutations, whereas TA98 and TA1537 indicate frameshift mutations. The strains of bacteria included in a kit are in compliance with the Organization for Economic Cooperation and Development (OECD) 471 Guideline for Testing of Chemicals.
The assay is a liquid microplate modification of the traditional Salmonella test. During the procedure, bacteria are exposed to different concentrations of a test compound for 90 min in a medium containing sufficient histidine to support cell divisions. Then, the cultures are diluted in a pH indicator medium lacking histidine and aliquoted into 48 wells of a 384-well plate. Within 2 days, bacteria that have undergone reversion to amino acid prototrophy will form colonies. Products of bacteria metabolism reduce pH of the medium, changing the color of wells from purple to yellow.
The test procedure provided by Xenometrix and described in detail elsewhere was followed. Bacterial strains were grown overnight (14–16 h) in exposure medium in a shaker incubator and then exposed to KM-568 in 24-well plates for 90 min at 37 °C with agitation. Final KM-568 concentrations in the assay were 0.1, 0.2, and 0.5 mM. After preincubation, the cultures were diluted in the indicator medium and the contents of each 24-well culture were transferred to 48 wells on a 384-well plate and incubated further for 48 h at 37 °C without agitation. After the exposure, the number of wells containing bacteria was scored for yellow wells. […] Pure DMSO was used as a negative control. All doses were performed in triplicate.
The fold increase of revertants relative to the solvent control was determined by dividing the mean number of positive wells at each dose by the solvent control at baseline. The solvent control at baseline was calculated as the mean number of positive wells in the solvent control plus one standard deviation (SD). When an increase of more than twofold relative to the baseline at more than one dose with a dose–response was observed, the sample was classified as positive, whereas when no response > 2 times the baseline and no dose–response was stated, the sample was classified as negative.

[4] = tested on: Salmonella typhimurium strains TA98, TA100, TA1535 and TA1537; assay: Ames microplate format (MPF) assay, overall verdict; settings: 0.1, 0.2, 0.5 mM; four strains
Text: as §1
The assay is a liquid microplate modification of the traditional Salmonella test. During the procedure, bacteria are exposed to different concentrations of a test compound for 90 min in a medium containing sufficient histidine to support cell divisions. […]
The test procedure provided by Xenometrix and described in detail elsewhere was followed. […] After the exposure, the number of wells containing bacteria was scored for yellow wells. […]
The fold increase of revertants relative to the solvent control was determined by dividing the mean number of positive wells at each dose by the solvent control at baseline. The solvent control at baseline was calculated as the mean number of positive wells in the solvent control plus one standard deviation (SD). […]

HepG2 cells = assay: LDH cytotoxicity assay, HepG2; type: cell-based, human; settings: HepG2, up to 100 µM, 24 h
Experimental: Human liver cancer HepG2 cell line (ATCC HB8065) and rat cardiomyoblast cell line H9c2 (ATCC-CRL1446) were purchased in ATCC (American Type Culture Collection, Manassas, VA, USA). The cells were cultured in standard conditions (37 °C, 5% CO2) in EMEM medium (ATCC, Manassas, VA, USA), supplemented with 10% FBS (Gibco, Waltham, MA, USA) and antibiotics (1% streptomycin/penicillin mixture, Sigma–Aldrich, Darmstadt, Germany) or DMEM high glucose (ATCC, Manassas, VA, USA) supplemented with 10% FBS (Gibco, Waltham, MA, USA) and antibiotics (1% streptomycin/penicillin mixture, Sigma–Aldrich, Darmstadt, Germany), respectively.
Cells were seeded at density 5 × 10^4 cells/per well. After 24 h, KM-568 and reference standard DOX were added to final concentrations of 0.1; 0.5; 1.0; 10; 25; 50; 100; 200 µM. After 24 h incubation, plates were centrifuged (400 g, 2 min) and 50 μL of the supernatant was transferred into the corresponding 96-well plate. […] Next, stop solution was added and absorbance was measured at 490 nm on a multi-well plate reader (Spectra Max iD3, Molecular Devices, San Jose, CA, USA). Cytotoxicity was determined as follows: cytotoxicity (%)=[(compound LDH activity – spontaneous LDH activity)/(maximum LDH activity – spontaneous LDH activity)] × 100. […]

Which results are given for `C[C@H](O)CNC(=O)/C=C/c1ccccc1` [KM-568, S(+)-(2E)-N-(2-hydroxypropyl)-3-phenylprop-2-enamide]?
Effect in NMDA receptor radioligand binding assay [1]: No significant effects; compound remained unchanged ([2]; after 60 min of incubation with microsomes): 72.37%; metabolic stability qualification ([2]; mouse liver microsomes): moderate metabolically stable; half-life at 20 μM ([2]; pH 7.4, mouse liver microsomes, 20 μM, read-out: half-life time (t1/2)): 2.14 h; microsomal CLint at 20 μM ([2]; pH 7.4, mouse liver microsomes, 20 μM, read-out: internal clearance (Clint)): 13.5 µL/min/mg; fold induction at 90 min, 0.1 mM [3]: 0.7; fold induction at 90 min, 0.2 mM [3]: 1.3; fold induction at 90 min, 0.5 mM [3]: 1.1; mutagenic activity in the Ames MPF assay [4]: did not exhibit mutagenic activity; cytotoxic effect, LDH assay (HepG2 cells): no cytotoxic effect
